According to patent publication US20250255867A1 (Kadmon Corporation, LLC, priority 2022, published 2025):

In the case of CC(C)NC(=O)COc1cccc(-c2nc(Nc3ccc4[nH]ncc4c3)c3ccccc3n2)c1 [Belumosudil, 2-{3-[4-(1H-indazol-5-ylamino)-2-quinazolinyl]phenoxy}-N-(propan-2-yl) acetamide], the “Urinary retention: # Events” value (Cohort 2 200 mg BID) is reported as 2, the “Urinary retention: Affected/At Risk” value (Cohort 2 200 mg BID) is reported as 1/16 and the “Urinary retention: Affected/At Risk (%)” value (Cohort 2 200 mg BID) is reported as “(6.25%)”. The “Urinary tract infection: # Events” value (Cohort 2 200 mg BID) was 2, the “Urinary tract infection: Affected/At Risk” value (Cohort 2 200 mg BID) was 2/16 and the “Urinary tract infection: Affected/At Risk (%)” value (Cohort 2 200 mg BID) was “(12.5%)”. For the same compound, the “Urinary tract pain: # Events” value (Cohort 2 200 mg BID) was 1, the “Urinary tract pain: Affected/At Risk” value (Cohort 2 200 mg BID) was 1/16 and the “Urinary tract pain: Affected/At Risk (%)” value (Cohort 2 200 mg BID) was “(6.25%)”. For the same compound, the “Urine output decreased: # Events” value (Cohort 2 200 mg BID) was 1, the “Urine output decreased: Affected/At Risk” value (Cohort 2 200 mg BID) was 1/16 and the “Urine output decreased: Affected/At Risk (%)” value (Cohort 2 200 mg BID) was “(6.25%)”. For the same compound, the “Vascular access complication: # Events” value (Cohort 2 200 mg BID) was 1, the “Vascular access complication: Affected/At Risk” value (Cohort 2 200 mg BID) was 1/16 and the “Vascular access complication: Affected/At Risk (%)” value (Cohort 2 200 mg BID) was “(6.25%)”. The “Vertigo: # Events” value (Cohort 2 200 mg BID) was 0, the “Vertigo: Affected/At Risk” value (Cohort 2 200 mg BID) was 0/16 and the “Vertigo: Affected/At Risk (%)” value (Cohort 2 200 mg BID) was “(0%)”. The “Vision blurred: # Events” value (Cohort 2 200 mg BID) was 2, the “Vision blurred: Affected/At Risk” value (Cohort 2 200 mg BID) was 2/16 and the “Vision blurred: Affected/At Risk (%)” value (Cohort 2 200 mg BID) was “(12.5%)”. For the same compound, the “Vomiting: # Events” value (Cohort 2 200 mg BID) was 3, the “Vomiting: Affected/At Risk” value (Cohort 2 200 mg BID) was 3/16 and the “Vomiting: Affected/At Risk (%)” value (Cohort 2 200 mg BID) was “(18.75%)”. For the same compound, the “Weight decreased: # Events” value (Cohort 2 200 mg BID) was 0, the “Weight decreased: Affected/At Risk” value (Cohort 2 200 mg BID) was 0/16 and the “Weight decreased: Affected/At Risk (%)” value (Cohort 2 200 mg BID) was “(0%)”. The “Weight increased: # Events” value (Cohort 2 200 mg BID) was 2, the “Weight increased: Affected/At Risk” value (Cohort 2 200 mg BID) was 1/16 and the “Weight increased: Affected/At Risk (%)” value (Cohort 2 200 mg BID) was “(6.25%)”. For the same compound, the “White blood cell count decreased: # Events” value (Cohort 2 200 mg BID) was 0, the “White blood cell count decreased: Affected/At Risk” value (Cohort 2 200 mg BID) was 0/16 and the “White blood cell count decreased: Affected/At Risk (%)” value (Cohort 2 200 mg BID) was “(0%)”. For the same compound, the “ALT/AST increased all grade, No.” value (Cohort 2 200 mg BID n=16) was 5, the “ALT/AST increased grade ≥3, No.” value (Cohort 2 200 mg BID n=16) was 2 and the “Anemia grade ≥3, No.” value (Cohort 2 200 mg BID n=16) was 1. The “Any AE, No. of patients” value (Cohort 2 200 mg BID n=16) was 16, the “Cough all grade, No.” value (Cohort 2 200 mg BID n=16) was 4 and the “Death, No.” value (Cohort 2 200 mg BID n=16) was 0. The “Diarrhea all grade, No.” value (Cohort 2 200 mg BID n=16) was 5, the “Drug-related AE, No.” value (Cohort 2 200 mg BID n=16) was 8 and the “Drug-related SAE, No.” value (Cohort 2 200 mg BID n=16) was 0. For the same compound, the “Dyspnea all grade, No.” value (Cohort 2 200 mg BID n=16) was 6, the “Dyspnea grade ≥3, No.” value (Cohort 2 200 mg BID n=16) was 2 and the “Fatigue all grade, No.” value (Cohort 2 200 mg BID n=16) was 3. For the same compound, the “Grade ≥3 AE, No.” value (Cohort 2 200 mg BID n=16) was 10, the “Headache all grade, No.” value (Cohort 2 200 mg BID n=16) was 3 and the “Hyperglycemia grade ≥3, No.” value (Cohort 2 200 mg BID n=16) was 0. The “Hypertension all grade, No.” value (Cohort 2 200 mg BID n=16) was 2, the “Hypoxia grade ≥3, No.” value (Cohort 2 200 mg BID n=16) was 1 and the “Lung infection or pneumonia grade ≥3, No.” value (Cohort 2 200 mg BID n=16) was 2. For the same compound, the “Nausea all grade, No.” value (Cohort 2 200 mg BID n=16) was 4, the “Peripheral edema all grade, No.” value (Cohort 2 200 mg BID n=16) was 4 and the “SAE, No.” value (Cohort 2 200 mg BID n=16) was 6. For the same compound, the “URI all grade, No.” value (Cohort 2 200 mg BID n=16) was 9, the “Patients with relative dose intensity >95%” value (Cohort 3) was 71% and the “Abdominal distension: # Events” value (Cohort 3 400 mg QD) was 1. The “Abdominal distension: Affected/At Risk” value (Cohort 3 400 mg QD) was 1/21, the “Abdominal distension: Affected/At Risk (%)” value (Cohort 3 400 mg QD) was “(4.76%)” and the “Abdominal pain upper: # Events” value (Cohort 3 400 mg QD) was 0. For the same compound, the “Abdominal pain upper: Affected/At Risk” value (Cohort 3 400 mg QD) was 0/21, the “Abdominal pain upper: Affected/At Risk (%)” value (Cohort 3 400 mg QD) was “(0%)” and the “Abdominal pain: # Events” value (Cohort 3 400 mg QD) was 6. For the same compound, the “Abdominal pain: Affected/At Risk” value (Cohort 3 400 mg QD) was 4/21, the “Abdominal pain: Affected/At Risk (%)” value (Cohort 3 400 mg QD) was “(19.05%)” and the “Actinic keratosis: # Events” value (Cohort 3 400 mg QD) was 1. For the same compound, the “Actinic keratosis: Affected/At Risk” value (Cohort 3 400 mg QD) was 1/21, the “Actinic keratosis: Affected/At Risk (%)” value (Cohort 3 400 mg QD) was “(4.76%)” and the “Acute kidney injury: # Events” value (Cohort 3 400 mg QD) was 6. For the same compound, the “Acute kidney injury: Affected/At Risk” value (Cohort 3 400 mg QD) was 2/21, the “Acute kidney injury: Affected/At Risk (%)” value (Cohort 3 400 mg QD) was “(9.52%)” and the “Acute respiratory distress syndrome: # Events” value (Cohort 3 400 mg QD) was 0. For the same compound, the “Acute respiratory distress syndrome: Affected/At Risk” value (Cohort 3 400 mg QD) was 0/21, the “Acute respiratory distress syndrome: Affected/At Risk (%)” value (Cohort 3 400 mg QD) was “(0%)” and the “Adrenal insufficiency: # Events” value (Cohort 3 400 mg QD) was 0. For the same compound, the “Adrenal insufficiency: Affected/At Risk” value (Cohort 3 400 mg QD) was 0/21, the “Adrenal insufficiency: Affected/At Risk (%)” value (Cohort 3 400 mg QD) was “(0%)” and the “Alanine aminotransferase increased: # Events” value (Cohort 3 400 mg QD) was 2. The “Alanine aminotransferase increased: Affected/At Risk” value (Cohort 3 400 mg QD) was 2/21, the “Alanine aminotransferase increased: Affected/At Risk (%)” value (Cohort 3 400 mg QD) was “(9.52%)” and the “Anaemia: # Events” value (Cohort 3 400 mg QD) was 0. For the same compound, the “Anaemia: Affected/At Risk” value (Cohort 3 400 mg QD) was 0/21, the “Anaemia: Affected/At Risk (%)” value (Cohort 3 400 mg QD) was “(0%)” and the “Anal incontinence: # Events” value (Cohort 3 400 mg QD) was 0. The “Anal incontinence: Affected/At Risk” value (Cohort 3 400 mg QD) was 0/21, the “Anal incontinence: Affected/At Risk (%)” value (Cohort 3 400 mg QD) was “(0%)” and the “Anxiety: # Events” value (Cohort 3 400 mg QD) was 3. The “Anxiety: Affected/At Risk” value (Cohort 3 400 mg QD) was 3/21, the “Anxiety: Affected/At Risk (%)” value (Cohort 3 400 mg QD) was “(14.29%)” and the “Arthralgia: # Events” value (Cohort 3 400 mg QD) was 6. The “Arthralgia: Affected/At Risk” value (Cohort 3 400 mg QD) was 5/21, the “Arthralgia: Affected/At Risk (%)” value (Cohort 3 400 mg QD) was “(23.81%)” and the “Aspartate aminotransferase increased: # Events” value (Cohort 3 400 mg QD) was 1. The “Aspartate aminotransferase increased: Affected/At Risk” value (Cohort 3 400 mg QD) was 1/21, the “Aspartate aminotransferase increased: Affected/At Risk (%)” value (Cohort 3 400 mg QD) was “(4.76%)” and the “Asthenia: # Events” value (Cohort 3 400 mg QD) was 0. The “Asthenia: Affected/At Risk” value (Cohort 3 400 mg QD) was 0/21, the “Asthenia: Affected/At Risk (%)” value (Cohort 3 400 mg QD) was “(0%)” and the “Atelectasis: # Events” value (Cohort 3 400 mg QD) was 0. For the same compound, the “Atelectasis: Affected/At Risk” value (Cohort 3 400 mg QD) was 0/21, the “Atelectasis: Affected/At Risk (%)” value (Cohort 3 400 mg QD) was “(0%)” and the “Back pain: # Events” value (Cohort 3 400 mg QD) was 1. For the same compound, the “Back pain: Affected/At Risk” value (Cohort 3 400 mg QD) was 1/21, the “Back pain: Affected/At Risk (%)” value (Cohort 3 400 mg QD) was “(4.76%)” and the “Balance disorder: # Events” value (Cohort 3 400 mg QD) was 0. The “Balance disorder: Affected/At Risk” value (Cohort 3 400 mg QD) was 0/21, the “Balance disorder: Affected/At Risk (%)” value (Cohort 3 400 mg QD) was “(0%)” and the “Basal cell carcinoma: # Events” value (Cohort 3 400 mg QD) was 0. For the same compound, the “Basal cell carcinoma: Affected/At Risk” value (Cohort 3 400 mg QD) was 0/21, the “Basal cell carcinoma: Affected/At Risk (%)” value (Cohort 3 400 mg QD) was “(0%)” and the “Benign prostatic hyperplasia: # Events” value (Cohort 3 400 mg QD) was 0. For the same compound, the “Benign prostatic hyperplasia: Affected/At Risk” value (Cohort 3 400 mg QD) was 0/21, the “Benign prostatic hyperplasia: Affected/At Risk (%)” value (Cohort 3 400 mg QD) was “(0%)” and the “Blepharitis: # Events” value (Cohort 3 400 mg QD) was 2. For the same compound, the “Blepharitis: Affected/At Risk” value (Cohort 3 400 mg QD) was 1/21, the “Blepharitis: Affected/At Risk (%)” value (Cohort 3 400 mg QD) was “(4.76%)” and the “Blister: # Events” value (Cohort 3 400 mg QD) was 1. For the same compound, the “Blister: Affected/At Risk” value (Cohort 3 400 mg QD) was 1/21, the “Blister: Affected/At Risk (%)” value (Cohort 3 400 mg QD) was “(4.76%)” and the “Blood alkaline phosphatase increased: # Events” value (Cohort 3 400 mg QD) was 0. For the same compound, the “Blood alkaline phosphatase increased: Affected/At Risk” value (Cohort 3 400 mg QD) was 0/21, the “Blood alkaline phosphatase increased: Affected/At Risk (%)” value (Cohort 3 400 mg QD) was “(0%)” and the “Blood chloride decreased: # Events” value (Cohort 3 400 mg QD) was 0. The “Blood chloride decreased: Affected/At Risk” value (Cohort 3 400 mg QD) was 0/21, the “Blood chloride decreased: Affected/At Risk (%)” value (Cohort 3 400 mg QD) was “(0%)” and the “Blood cholesterol increased: # Events” value (Cohort 3 400 mg QD) was 1. The “Blood cholesterol increased: Affected/At Risk” value (Cohort 3 400 mg QD) was 1/21, the “Blood cholesterol increased: Affected/At Risk (%)” value (Cohort 3 400 mg QD) was “(4.76%)” and the “Blood creatine increased: # Events” value (Cohort 3 400 mg QD) was 0. For the same compound, the “Blood creatine increased: Affected/At Risk” value (Cohort 3 400 mg QD) was 0/21, the “Blood creatine increased: Affected/At Risk (%)” value (Cohort 3 400 mg QD) was “(0%)” and the “Blood creatine phosphokinase increased: # Events” value (Cohort 3 400 mg QD) was 0. The “Blood creatine phosphokinase increased: Affected/At Risk” value (Cohort 3 400 mg QD) was 0/21, the “Blood creatine phosphokinase increased: Affected/At Risk (%)” value (Cohort 3 400 mg QD) was “(0%)” and the “Blood creatinine increased: # Events” value (Cohort 3 400 mg QD) was 2. The “Blood creatinine increased: Affected/At Risk” value (Cohort 3 400 mg QD) was 2/21 and the “Blood creatinine increased: Affected/At Risk (%)” value (Cohort 3 400 mg QD) was “(9.52%)”.
